# Measurements reported in article PMC11802874, “The hypolipidemic effect of MI-883, the combined CAR agonist/ PXR antagonist, in diet-induced hypercholesterolemia model” (Nature Communications, 2025).
# Assay: Pharmacokinetic study after single dose in C57BL/6N mice
# Format: in vivo, mouse
# Description: Pharmacokinetic study of MI-883 in C57BL/6N mice (9–10 weeks old, body weight 20.8 to 24.5 g and average body weight across all groups 22.7 g, SD = 1.1 g) were performed following peroral (p.o.) and intraperitoneal (i.p.) administrations. […] There was also a control group of 4 animals per route. The levels of the parent compound MI-883 were determined by LC-MS/MS in the blood plasma, brain, kidney, liver, muscle (Leg triceps), bile, small intestine, colon, and adipose tissues over time after a single dose of 10 mg/kg. Mice were injected i.p. with 2,2,2-tribromoethanol at a dose of 150 mg/kg prior to drawing the blood. Blood collection was performed from the orbital sinus in BD microtainers tubes containing K2EDTA. Animals were sacrificed by cervical dislocation after the blood samples collection. After this, samples of brain, kidney, liver, muscle (Leg triceps), small intestine, colon, and adipose tissue were collected. Bile samples were taken from the gallbladder of mice. Urine and feces samples were collected using metabolic cages over the course of 1440 min (24 h) after compound administration. All samples were immediately processed, flash-frozen, and stored at –70 °C until subsequent analysis. Detection of the presence of potential metabolites (2-chloro-5-((4-(2-(4-chlorophenyl)-7-fluoroimidazo[1,2-a]pyridin-3-yl)-1H-1,2,3-triazol-1-yl)methyl)-N-methylbenzamide or 2-(4-chlorophenyl)-7-fluoro-3-(1H-1,2,3-triazol-4-yl)imidazo[1,2-a]pyridine) in plasma and tissues was performed. MI-883 was applied in 5%DMSO – 5%PEG300 – 90%corn oil formulation with a final concentration of the compound, 2 mg/ml. Animal treatment and sample preparation were conducted by the Animal Laboratory personnel at Enamine/Bienta.
# Plasma samples (50 μl) were mixed with 200 μl of IS400 solution. After mixing by pipetting and centrifuging for 4 min at 6000 rpm, 2 μl of each supernatant was injected into the LC-MS/MS system. Solution of compound IS-19851 (400 ng/ml in acetonitrile-methanol mixture 1:1, v/v) was used as internal standard (IS400) for quantification of MI-883 in blood plasma, liver, kidney, muscle (Leg triceps), small intestine, and colon samples. Liver, kidney, muscle (Leg triceps), colon, and small intestine samples (weight 100 mg ±1 mg) were disintegrated in 500 μl of IS400 using zirconium oxide beads (120 mg ± 5 mg) in The Bullet Blender® homogenizer for 1–3 min at speed 8–12. After this, the samples were centrifuged for 3 min at 14,000 rpm, and 1 μl of each supernatant was injected into the LC-MS/MS system.
# Brain and adipose tissue samples (weight 100 mg ± 1 mg) were dispersed in 500 μl of IS400(80) using zirconium oxide beads (120 mg ± 5 mg) in The Bullet Blender® homogenizer for 30 s at speed 8. After this, the samples were centrifuged for 4 min at 14,000 rpm, and 1 μl of each supernatant was injected into the LC-MS/MS system. Solution of compound IS-19851 (400 ng/ml in water-acetonitrile-methanol mixture, 2:4:4, v/v/v) was used as internal standard (IS400(80)) for quantification of MI-883 in the brain, adipose tissue, urine, and bile samples. Urine (cumulative) and bile samples were mixed with IS400(80) solution (1:20, v/v). After mixing by pipetting and centrifuging for 4 min at 6000 rpm, 0.5 μl of each supernatant was injected into the LC-MS/MS system. Cumulative feces samples (114 mg–249 mg) were transferred to BMT-20-S tubes with 4 stainless steel balls, mixed with 20 volumes of IS400(80) solution, and dispersed using ULTRA-TURRAX Tube Drive for 1 min at 3000 rpm within the 30 min thrice. After dispersing and centrifuging for 2 min at 14,000 rpm, 0.5 μl of each supernatant was injected into the LC-MS/MS system.
# The concentration of MI-883 in plasma and tissues was determined using a high-performance liquid chromatography/tandem mass spectrometry (HPLC-MS/MS) method. […]
# [1] = male, C57BL/6N, mouse, po, Liver, 10 mg/kg
# [2] = male, C57BL/6N, mouse, po, Plasma, 10 mg/kg
structure (smiles),measurement,setting,value
"NC(=O)c1cc(Cn2cc(-c3c(-c4ccc(Cl)cc4)nc4cc(F)ccn34)nn2)ccc1Cl [MI-883, 2-chloro-5-((4-(2-(4-chlorophenyl)-7-fluoroimidazo[1,2-a]pyridin-3-yl)-1H-1,2,3-triazol-1-yl)methyl)benzamide]",Tmax,[1],30 min
same,half-life,[1],211 min
same,Cmax,[2],9290 ng/mL
same,Tmax,[2],30 min
same,half-life,[2],170 min
same,Tmax,"male, mouse, ip, Plasma, 10 mg/kg, C57BL/6N mice",30 min
same,PK of MI-883: MI-883 p.o. adipose tis.,"p.o., time 10",211
same,PK of MI-883: MI-883 p.o. adipose tis.,"p.o., time 120",5811
same,PK of MI-883: MI-883 p.o. adipose tis.,"p.o., time 240",980
same,PK of MI-883: MI-883 p.o. adipose tis.,"p.o., time 480",1023
same,PK of MI-883: MI-883 p.o. adipose tis.,"p.o., time 720",1016
same,PK of MI-883: MI-883 p.o. adipose tis.,"p.o., time 1440",8
same,PK of MI-883: MI-883 p.o. bile,"p.o., time 10",560
same,PK of MI-883: MI-883 p.o. bile,"p.o., time 120",5663
same,PK of MI-883: MI-883 p.o. bile,"p.o., time 240",9638
same,PK of MI-883: MI-883 p.o. bile,"p.o., time 480",9739
same,PK of MI-883: MI-883 p.o. bile,"p.o., time 720",23456
same,PK of MI-883: MI-883 p.o. bile,"p.o., time 1440",192
same,PK of MI-883: MI-883 p.o. brain,"p.o., time 10",8
same,PK of MI-883: MI-883 p.o. brain,"p.o., time 120",300
same,PK of MI-883: MI-883 p.o. brain,"p.o., time 240",45
same,PK of MI-883: MI-883 p.o. brain,"p.o., time 720",55
same,PK of MI-883: MI-883 p.o. colon,"p.o., time 10",2929
same,PK of MI-883: MI-883 p.o. colon,"p.o., time 120",4345
same,PK of MI-883: MI-883 p.o. colon,"p.o., time 240",1191
same,PK of MI-883: MI-883 p.o. colon,"p.o., time 480",1428
same,PK of MI-883: MI-883 p.o. colon,"p.o., time 720",1386
same,PK of MI-883: MI-883 p.o. colon,"p.o., time 1440",15
same,PK of MI-883: MI-883 p.o. feces,"p.o., feces, time 1440",174 ng
same,PK of MI-883: MI-883 p.o. kidney,"p.o., time 10",573
same,PK of MI-883: MI-883 p.o. kidney,"p.o., time 120",9000
same,PK of MI-883: MI-883 p.o. kidney,"p.o., time 240",2409
same,PK of MI-883: MI-883 p.o. kidney,"p.o., time 480",2347
same,PK of MI-883: MI-883 p.o. kidney,"p.o., time 720",2408
same,PK of MI-883: MI-883 p.o. kidney,"p.o., time 1440",40
same,PK of MI-883: MI-883 p.o. liver,"p.o., time 10",1972
same,PK of MI-883: MI-883 p.o. liver,"p.o., time 120",14919
same,PK of MI-883: MI-883 p.o. liver,"p.o., time 240",5297
same,PK of MI-883: MI-883 p.o. liver,"p.o., time 480",5137
same,PK of MI-883: MI-883 p.o. liver,"p.o., time 720",5549
same,PK of MI-883: MI-883 p.o. liver,"p.o., time 1440",102
same,PK of MI-883: MI-883 p.o. muscule,"p.o., time 10",98
same,PK of MI-883: MI-883 p.o. muscule,"p.o., time 120",2725
same,PK of MI-883: MI-883 p.o. muscule,"p.o., time 240",421
same,PK of MI-883: MI-883 p.o. muscule,"p.o., time 480",488
same,PK of MI-883: MI-883 p.o. muscule,"p.o., time 720",543
same,PK of MI-883: MI-883 p.o. small int.,"p.o., time 10",5277
same,PK of MI-883: MI-883 p.o. small int.,"p.o., time 120",9143
same,PK of MI-883: MI-883 p.o. small int.,"p.o., time 240",2579
same,PK of MI-883: MI-883 p.o. small int.,"p.o., time 480",1398
same,PK of MI-883: MI-883 p.o. small int.,"p.o., time 720",2156
same,PK of MI-883: MI-883 p.o. small int.,"p.o., time 1440",21
same,PK of MI-883: MI-883 p.o.,"p.o., time 10",440
same,PK of MI-883: MI-883 p.o.,"p.o., time 120",9288
same,PK of MI-883: MI-883 p.o.,"p.o., time 240",1645
same,PK of MI-883: MI-883 p.o.,"p.o., time 480",1502
same,PK of MI-883: MI-883 p.o.,"p.o., time 720",1788
same,PK of MI-883: MI-883 p.o.,"p.o., time 1440",15
same,time with liver concentration above 1000 ng/g,single dose of 10 mg/kg,more than 18 hours
same,concentration in the liver lysate,"single dose of 10 mg/kg p.o., male C57BL/6N mice",greater than 1000 ng/g
